Reference: the supplement of paper PMC10307832

How the values were obtained:
Assay in all cases: relative viability (nuclei count vs DMSO), 5 days (fraction); higher = more cells survive
HOP-62 = tested on: HOP-62
Outline: (§1)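 Lung cancer cell lines in 1536-well plates got either a single drug or a fixed anchor-drug dose together with five library-drug doses (not always all listed) in √10 steps, by pin tool, on the day after seeding. Nuclei were counted after 5 days, and relative viability is the treated-to-vehicle ratio of nuclei counts. Values are medians of duplicate plates.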

NCI-H2087 = tested on: NCI-H2087
Outline: as §1

COR-L 105 = tested on: COR-L 105
Outline: as §1

A-427 = tested on: A-427
Outline: as §1

CAL-12T = tested on: CAL-12T
Outline: as §1

NCI-H1651 = tested on: NCI-H1651
Outline: as §1

NCI-H596 = tested on: NCI-H596
Outline: as §1

NCI-H1975 = tested on: NCI-H1975
Outline: as §1

NCI-H1563 = tested on: NCI-H1563
Outline: as §1

NCI-H650 = tested on: NCI-H650
Outline: as §1

NCI-H647 = tested on: NCI-H647
Outline: as §1

NCI-H2342 = tested on: NCI-H2342
Outline: as §1

LCLC-103H = tested on: LCLC-103H
Outline: as §1

LXF-289 = tested on: LXF-289
Outline: as §1

COR-L23 = tested on: COR-L23
Outline: as §1

NCI-H2085 = tested on: NCI-H2085
Outline: as §1

SK-MES-1 = tested on: SK-MES-1
Outline: as §1

NCI-H2023 = tested on: NCI-H2023
Outline: as §1

RERF-LC-KJ = tested on: RERF-LC-KJ
Outline: as §1

NCI-H3122 = tested on: NCI-H3122
Outline: as §1

NCI-H2170 = tested on: NCI-H2170
Outline: as §1

NCI-H1395 = tested on: NCI-H1395
Outline: as §1

Question: Which results are given for `COCC1(CO)C(=O)C2CCN1CC2` (stereo not drawn) [PRIMA-1MET] + COc1cccc2cc(-c3nc([C@H]4CC[C@H](C(=O)O)CC4)n4ncnc(N)c34)[nH]c12 [OSI-027] (partner 0.5 µM)?
Answer: relative viability (HOP-62; first compound 0.2 µM): 0.965; relative viability (HOP-62; first compound 0.6325 µM): 0.808; relative viability (HOP-62; first compound 2 µM): 0.757; relative viability (HOP-62; first compound 6.325 µM): 0.88; relative viability (HOP-62; first compound 20 µM): 0.754; relative viability (NCI-H2087; first compound 0.2 µM): 0.355; relative viability (NCI-H2087; first compound 0.6325 µM): 0.481; relative viability (NCI-H2087; first compound 2 µM): 0.681; relative viability (NCI-H2087; first compound 6.325 µM): 0.433; relative viability (NCI-H2087; first compound 20 µM): 0.262; relative viability (COR-L 105; first compound 0.2 µM): 0.899; relative viability (COR-L 105; first compound 0.6325 µM): 0.66; relative viability (COR-L 105; first compound 2 µM): 0.488; relative viability (COR-L 105; first compound 6.325 µM): 0.662; relative viability (COR-L 105; first compound 20 µM): 0.0915; relative viability (A-427; first compound 0.2 µM): 0.284; relative viability (A-427; first compound 0.6325 µM): 0.444; relative viability (A-427; first compound 2 µM): 0.389; relative viability (A-427; first compound 6.325 µM): 0.263; relative viability (A-427; first compound 20 µM): 0.369; relative viability (CAL-12T; first compound 0.2 µM): 0.7; relative viability (CAL-12T; first compound 0.6325 µM): 0.608; relative viability (CAL-12T; first compound 2 µM): 0.807; relative viability (CAL-12T; first compound 6.325 µM): 0.798; relative viability (CAL-12T; first compound 20 µM): 0.106; relative viability (NCI-H1651; first compound 0.2 µM): 0.801; relative viability (NCI-H1651; first compound 0.6325 µM): 0.756; relative viability (NCI-H1651; first compound 2 µM): 0.636; relative viability (NCI-H1651; first compound 6.325 µM): 0.669; relative viability (NCI-H1651; first compound 20 µM): 0.701; relative viability (NCI-H596; first compound 0.2 µM): 0.747; relative viability (NCI-H596; first compound 0.6325 µM): 0.635; relative viability (NCI-H596; first compound 2 µM): 0.457; relative viability (NCI-H596; first compound 6.325 µM): 0.893; relative viability (NCI-H596; first compound 20 µM): 0.645; relative viability (NCI-H1975; first compound 0.2 µM): 0.879; relative viability (NCI-H1975; first compound 0.6325 µM): 0.62; relative viability (NCI-H1975; first compound 2 µM): 0.604; relative viability (NCI-H1975; first compound 6.325 µM): 0.777; relative viability (NCI-H1975; first compound 20 µM): 0.738; relative viability (NCI-H1563; first compound 0.2 µM): 0.854; relative viability (NCI-H1563; first compound 0.6325 µM): 0.789; relative viability (NCI-H1563; first compound 2 µM): 0.735; relative viability (NCI-H1563; first compound 6.325 µM): 0.744; relative viability (NCI-H1563; first compound 20 µM): 0.327; relative viability (NCI-H650; first compound 0.2 µM): 0.705; relative viability (NCI-H650; first compound 2 µM): 0.5; relative viability (NCI-H650; first compound 6.325 µM): 0.603; relative viability (NCI-H650; first compound 20 µM): 0.381; relative viability (NCI-H647; first compound 0.2 µM): 0.684; relative viability (NCI-H647; first compound 0.6325 µM): 0.837; relative viability (NCI-H647; first compound 2 µM): 0.508; relative viability (NCI-H647; first compound 6.325 µM): 0.56; relative viability (NCI-H647; first compound 20 µM): 0.105; relative viability (NCI-H2342; first compound 0.2 µM): 0.598; relative viability (NCI-H2342; first compound 0.6325 µM): 0.59; relative viability (NCI-H2342; first compound 2 µM): 0.483; relative viability (NCI-H2342; first compound 6.325 µM): 0.595; relative viability (NCI-H2342; first compound 20 µM): 0.565; relative viability (LCLC-103H; first compound 0.2 µM): 0.547; relative viability (LCLC-103H; first compound 0.6325 µM): 0.391; relative viability (LCLC-103H; first compound 2 µM): 0.399; relative viability (LCLC-103H; first compound 6.325 µM): 0.481; relative viability (LCLC-103H; first compound 20 µM): 0.409; relative viability (LXF-289; first compound 0.2 µM): 0.889; relative viability (LXF-289; first compound 0.6325 µM): 0.803; relative viability (LXF-289; first compound 2 µM): 0.527; relative viability (LXF-289; first compound 6.325 µM): 0.874; relative viability (LXF-289; first compound 20 µM): 0.759; relative viability (COR-L23; first compound 0.2 µM): 0.892; relative viability (COR-L23; first compound 0.6325 µM): 0.679; relative viability (COR-L23; first compound 2 µM): 0.728; relative viability (COR-L23; first compound 6.325 µM): 0.744; relative viability (COR-L23; first compound 20 µM): 0.0162; relative viability (NCI-H2085; first compound 0.2 µM): 0.707; relative viability (NCI-H2085; first compound 0.6325 µM): 0.665; relative viability (NCI-H2085; first compound 2 µM): 0.315; relative viability (NCI-H2085; first compound 6.325 µM): 0.548; relative viability (NCI-H2085; first compound 20 µM): 0.194; relative viability (SK-MES-1; first compound 0.2 µM): 0.65; relative viability (SK-MES-1; first compound 0.6325 µM): 0.711; relative viability (SK-MES-1; first compound 2 µM): 0.543; relative viability (SK-MES-1; first compound 6.325 µM): 0.633; relative viability (SK-MES-1; first compound 20 µM): 0.436; relative viability (NCI-H2023; first compound 0.2 µM): 0.453; relative viability (NCI-H2023; first compound 0.6325 µM): 0.366; relative viability (NCI-H2023; first compound 2 µM): 0.363; relative viability (NCI-H2023; first compound 6.325 µM): 0.4; relative viability (NCI-H2023; first compound 20 µM): 0.241; relative viability (RERF-LC-KJ; first compound 0.2 µM): 0.56; relative viability (RERF-LC-KJ; first compound 0.6325 µM): 0.625; relative viability (RERF-LC-KJ; first compound 2 µM): 0.54; relative viability (RERF-LC-KJ; first compound 6.325 µM): 0.662; relative viability (RERF-LC-KJ; first compound 20 µM): 0.588; relative viability (NCI-H3122; first compound 0.2 µM): 0.594; relative viability (NCI-H3122; first compound 0.6325 µM): 0.871; relative viability (NCI-H3122; first compound 6.325 µM): 0.74; relative viability (NCI-H3122; first compound 20 µM): 0.831; relative viability (NCI-H2170; first compound 0.2 µM): 0.494; relative viability (NCI-H2170; first compound 0.6325 µM): 0.634; relative viability (NCI-H2170; first compound 2 µM): 0.722; relative viability (NCI-H2170; first compound 6.325 µM): 0.718; relative viability (NCI-H2170; first compound 20 µM): 0.713; relative viability (NCI-H1395; first compound 0.2 µM): 0.605; relative viability (NCI-H1395; first compound 0.6325 µM): 0.492; relative viability (NCI-H1395; first compound 2 µM): 0.647; relative viability (NCI-H1395; first compound 6.325 µM): 0.659; relative viability (NCI-H1395; first compound 20 µM): 0.6
